Experimental data from ChEMBL document CHEMBL1136022, “Development of tripeptidyl farnesyltransferase inhibitors” (Bioorg Med Chem Lett, 2002).
Where a SMILES comes first, the peptide text is derived from it. The star is where a group is joined. Isovaleryl = CC(C)CC(=O)*; Isobutyryl = CC(C)C(=O)*; Octanoyl = CCCCCCCC(=O)*; Hexanoyl = CCCCCC(=O)*; PhAc = O=C(Cc1ccccc1)*; Bz = O=C(c1ccccc1)*

How the values were obtained:
[1] = molecular target: Protein farnesyltransferase (Bos taurus, UniProt P29702+P49355); test: In vitro inhibition of bovine Farnesyltransferase.; format: protein-complex assay
[2] = molecular target: Protein farnesyltransferase (Bos taurus) (UniProt P29702+P49355); test: In vitro inhibition of bovine Farnesyltransferase at a 1 ug/mL.; format: protein-complex assay

COC(=O)[C@H](Cc1ccc(OC(=O)C=C(C)C)cc1)NC(=O)[C@@H](NC(=O)[C@@H](N)CS)C(C)C
IC50 [1]: 0.5 µM | inhibition [2]: 79.6%

COC(=O)[C@H](COC(=O)c1ccc(Cl)cc1)NC(=O)[C@@H](NC(=O)[C@@H](N)CS)C(C)C
IC50 [1]: 0.82 µM | inhibition [2]: 75%

COC(=O)[C@H](COC(=O)C=C(C)C)NC(=O)[C@@H](NC(=O)[C@@H](N)CS)C(C)C
inhibition [2]: 38.6%

COC(=O)[C@H](Cc1ccc(OC(=O)Cc2ccccc2)cc1)NC(=O)[C@@H](NC(=O)[C@@H](N)CS)C(C)C (H-Cys-Val-Tyr(PhAc)-OMe)
inhibition [2]: 32%

COC(=O)[C@H](Cc1cccc(OC(=O)C=C(C)C)c1)NC(=O)[C@@H](NC(=O)[C@@H](N)CS)C(C)C
IC50 [1]: 8.4 µM | inhibition [2]: 61%

CCCCCCCC(=O)Oc1ccc(C[C@H](NC(=O)[C@@H](NC(=O)[C@@H](N)CS)C(C)C)C(=O)OC)cc1 (H-Cys-Val-Tyr(Octanoyl)-OMe)
IC50 [1]: 22 µM | inhibition [2]: 17%

COC(=O)[C@H](Cc1ccc(OC(=O)CC(C)CCCC(C)C)cc1)NC(=O)[C@@H](NC(=O)[C@@H](N)CS)C(C)C (some centres undefined)
IC50 [1]: 8.1 µM | inhibition [2]: 10%

COC(=O)[C@H](CO)NC(=O)[C@@H](NC(=O)[C@@H](N)CS)C(C)C (H-Cys-Val-Ser-OMe)
inhibition [2]: 0%

COC(=O)[C@H](Cc1ccc(OC(=O)c2ccccc2)cc1)NC(=O)[C@@H](NC(=O)[C@@H](N)CS)C(C)C (H-Cys-Val-Tyr(Bz)-OMe)
IC50 [1]: 20 µM | inhibition [2]: 23.4%

COC(=O)[C@H](COC(=O)c1ccccc1)NC(=O)[C@@H](NC(=O)[C@@H](N)CS)C(C)C (H-Cys-Val-Ser(Bz)-OMe)
IC50 [1]: 0.9 µM | inhibition [2]: 69.3%

COC(=O)[C@H](Cc1ccc(OC(C)=O)cc1)NC(=O)[C@@H](NC(=O)[C@@H](N)CS)C(C)C (H-Cys-Val-Tyr(Ac)-OMe)
IC50 [1]: 48 µM | inhibition [2]: 6.3%

COC(=O)[C@H](Cc1ccc(OC(=O)/C=C/c2ccccc2)cc1)NC(=O)[C@@H](NC(=O)[C@@H](N)CS)C(C)C
IC50 [1]: 43 µM | inhibition [2]: 12.6%

COC(=O)[C@H](Cc1cccc(OC(=O)C(C)C)c1)NC(=O)[C@@H](NC(=O)[C@@H](N)CS)C(C)C
IC50 [1]: 10 µM | inhibition [2]: 30%

COC(=O)[C@H](Cc1cccc(OC(=O)/C=C/c2ccccc2)c1)NC(=O)[C@@H](NC(=O)[C@@H](N)CS)C(C)C
IC50 [1]: 17 µM | inhibition [2]: 17%

COC(=O)[C@H](COC(=O)c1ccc(C)cc1)NC(=O)[C@@H](NC(=O)[C@@H](N)CS)C(C)C
IC50 [1]: 0.92 µM | inhibition [2]: 67%

CCCCCC(=O)Oc1ccc(C[C@H](NC(=O)[C@@H](NC(=O)[C@@H](N)CS)C(C)C)C(=O)OC)cc1 (H-Cys-Val-Tyr(Hexanoyl)-OMe)
IC50 [1]: 7.5 µM | inhibition [2]: 42%

COC(=O)[C@H](COC(=O)/C=C/c1ccccc1)NC(=O)[C@@H](NC(=O)[C@@H](N)CS)C(C)C
inhibition [2]: 16.3%

COC(=O)[C@H](Cc1cccc(OC(=O)c2ccccc2)c1)NC(=O)[C@@H](NC(=O)[C@@H](N)CS)C(C)C
inhibition [2]: 69.3%

COC(=O)[C@H](Cc1ccc(OC(=O)C(C)C)cc1)NC(=O)[C@@H](NC(=O)[C@@H](N)CS)C(C)C (H-Cys-Val-Tyr(Isobutyryl)-OMe)
IC50 [1]: 12 µM | inhibition [2]: 26.7%

COC(=O)[C@H](Cc1cccc(OC(C)=O)c1)NC(=O)[C@@H](NC(=O)[C@@H](N)CS)C(C)C
inhibition [2]: 12%

COC(=O)[C@H](COC(=O)c1ccc(OC)cc1)NC(=O)[C@@H](NC(=O)[C@@H](N)CS)C(C)C
IC50 [1]: 1.8 µM | inhibition [2]: 57%

COC(=O)[C@H](CCSC)NC(=O)[C@H](Cc1ccccc1)NC(=O)[C@@H](NC(=O)[C@@H](N)CS)C(C)C
IC50 [1]: 5.8 µM

COC(=O)[C@H](Cc1ccc(OC(=O)CC(C)C)cc1)NC(=O)[C@@H](NC(=O)[C@@H](N)CS)C(C)C (H-Cys-Val-Tyr(Isovaleryl)-OMe)
IC50 [1]: 0.82 µM | inhibition [2]: 74%
